Where “and” joins values, the source holds several entries; their conditions need not be identical. Identical values can stand only once. Like-named read-outs stand apart in the source and are kept apart here.
Experiments:
[1] = system: MLKL^−/− HT29 cells expressing MLKL-FKBP^F36V; assay type: cell-based; details: for TNF+911+zVAD (PI exclusion): MLKL-/- + MLKL FKBPF36V, replicate columns
Procedure: Cell death was assessed by flow cytometric analysis of PI exclusion. […] Cell death was assessed by flow cytometric analysis of PI exclusion. […] Cell death was assessed by flow cytometric analysis of PI exclusion. e N = 4, f N = 3 independent experiments (symbols), EB represent mean ± SD. g Western from MLKL^−/−CASP8^−/− HT29 cells stably expressing the doxycycline-inducible C-terminal fusion protein, MLKL-NanoLuc (MLKL-NLuc) and constitutively expressing the C-terminal fusion protein caspase-8-FKBP^F36V. […] Cell death was assessed using an IncuCyte and Cytotox-Red uptake. N = 3 independent experiments, one representative experiment shown, EB represent mean ± SD.
Degrader compounds or a DMSO vehicle control were added for 5 h, as stated in the Fig. legends. Cells were detached using Trypsin-EDTA (Merck) and resuspended in cell supernatants containing 10 μg/mL propidium iodide (PI). PI exclusion analysis was performed using an LSR II flow cytometer (Becton Dickinson, NJ) with 10,000 single-cell events per sample. Flow cytometry data were analysed using WEASEL version 2.7 software (Frank Battye).

[2] = molecular target: T1, murine MLKL-FKBP^F36V (Homo sapiens, UniProt P62942, F37V); assay type: cell-based; details: 31.2-500 nM, 5 h
T1 construct: expressed in transfected cells; host or cells: Mlkl-/- mouse dermal fibroblasts, doxycycline-inducible
T1 sequence (P62942 whole entry F37V): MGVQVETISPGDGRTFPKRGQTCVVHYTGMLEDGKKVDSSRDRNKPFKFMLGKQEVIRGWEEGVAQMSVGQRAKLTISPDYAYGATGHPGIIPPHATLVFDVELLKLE
Procedure: All timepoint experiments were performed as reverse timepoints in order to harvest all cells at the same time. At the indicated time points cells were lysed in NuPAGE LDS lysis buffer (Invitrogen) diluted to 1× in DISC lysis buffer (20 mM Tris-HCl pH7.5, 150 mM NaCl, 2 mM EDTA pH 8.0, 1% Triton X-100, 10% glycerol, H20)) supplemented with β-Mercaptoethanol (2%), protease and phosphatase inhibitors. Lysates were run through polypropylene columns (Pierce) to shred DNA. […] Membranes were blocked in 5% skim milk (Devondale) in TBS-T (TBS, 0.1% Tween-20) for 1 h prior to immunoblotting with primary antibodies overnight at 4 °C. Unless stated otherwise, all primary antibodies were diluted in TBS-T (TBS, 0.1% Tween-20) containing 5% BSA (Sigma A8022) and 0.04% sodium azide: HaloTag (1:1000, Promega; G9211), NanoLuc (1:500, Promega; N7000), β-actin (1:20,000, Sigma; A-1798), MLKL (1:1000, produced in-house; 3H1 clone)[39], FKBP (1:1000, R&D systems; 422513), caspase-8 (1:1000, Proteintech; 13423-1-AP), Histone H3 (1:1000, Abcam; ab10799), Cadherin (1:1000, Cell Signalling Technologies; 4068 T). Membranes were washed 3 × 5–10 min in TBS-T (TBS, 0.1% Tween-20) prior to the addition of the appropriate secondary antibodies conjugated with horseradish peroxidase (Jaxon laboratories). […]

[3] = molecular target: T2, caspase-8-FKBP^F36V (Homo sapiens, UniProt P62942, F37V); assay type: cell-based; details: 5 h
T2 construct: expressed in transfected cells; host or cells: MLKL-/-CASP8-/- HT29, constitutive expression
T2 sequence (P62942 whole entry F37V): as above

[4] = molecular target: recombinant NanoLuc enzyme (Oplophorus gracilirostris, UniProt Q9GV45, A31E/A60N/A81I/F95D/I117V/K70R/L54V/L99Q/M102K/N193R/P142E/Q151K/Q38R/Q45L/V71I/Y165I); assay type: biochemical
Chain of recombinant NanoLuc enzyme (Q9GV45 other isoform, or with tags, fused parts or gaps with the stated changes): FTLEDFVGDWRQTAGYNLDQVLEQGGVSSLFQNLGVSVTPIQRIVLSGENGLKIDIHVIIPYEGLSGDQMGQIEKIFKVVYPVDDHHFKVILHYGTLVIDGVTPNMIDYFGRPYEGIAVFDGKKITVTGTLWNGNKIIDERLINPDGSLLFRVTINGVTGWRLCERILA

[5] = molecular target: Halo-EGFP-NanoLuc-FKBP^F36V (H-E-N-F) fusion protein (UniProt P0A3G2+P62942+Q9GV45, A155T/A167V/A172T/A224E/A31E/A60N/A81I/C128F/C176G/D78G/E160K/E257K/F37V/F95D/H272N/I117V/K175M/K195N/K70R/L47V/L54V/L88M/L99Q/M102K/N193R/N227D/P142E/P291S/Q151K/Q38R/Q45L/S2A/S58T/T264A/V71I/Y165I/Y273L/Y87F); assay type: cell-based; details: 5 h
Chain of Halo-EGFP-NanoLuc-FKBP^F36V (H-E-N-F) fusion protein (Q9GV45 other isoform, or with tags, fused parts or gaps with the stated changes): as above
Chain of Halo-EGFP-NanoLuc-FKBP^F36V (H-E-N-F) fusion protein (P0A3G2 other isoform, or with tags, fused parts or gaps with the stated changes): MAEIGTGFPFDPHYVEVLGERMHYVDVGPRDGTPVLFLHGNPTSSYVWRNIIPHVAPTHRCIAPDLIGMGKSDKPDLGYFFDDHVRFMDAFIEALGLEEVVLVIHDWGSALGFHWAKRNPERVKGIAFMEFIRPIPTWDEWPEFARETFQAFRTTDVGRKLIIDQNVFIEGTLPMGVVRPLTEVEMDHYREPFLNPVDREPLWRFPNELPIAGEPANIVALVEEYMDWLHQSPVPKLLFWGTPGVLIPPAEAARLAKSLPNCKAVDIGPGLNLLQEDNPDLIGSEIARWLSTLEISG
Chain of Halo-EGFP-NanoLuc-FKBP^F36V (H-E-N-F) fusion protein (P62942 whole entry F37V, the tested form may be a part): as the sequence (P62942 whole entry F37V) above

[6] = molecular target: T3, Fibrillarin-NanoLuc (Oplophorus gracilirostris, UniProt Q9GV45, A31E/A60N/A81I/F95D/I117V/K70R/L54V/L99Q/M102K/N193R/P142E/Q151K/Q38R/Q45L/V71I/Y165I); test: cell-based; details: HEK-293T; 500 nM, 10 h; read-out: Dmax (densitometry)
T3 construct: endogenous in cells; host or cells: 293T, CRISPR/PITCh knock-in at the FBL locus
T3 sequence (Q9GV45 other isoform, or with tags, fused parts or gaps with the stated changes): as the sequence (Q9GV45 other isoform, or with tags, fused parts or gaps with the stated changes) above

[7] = molecular target: T4, NanoLuc-SLC38A2 (Oplophorus gracilirostris, UniProt Q9GV45, A31E/A60N/A81I/F95D/I117V/K70R/L54V/L99Q/M102K/N193R/P142E/Q151K/Q38R/Q45L/V71I/Y165I); test: Western blot of 293T cells expressing NanoLuc-SLC38A2; assay type: cell-based; details: 125-500 nM, 5 h
T4 construct: expressed in transfected cells; host or cells: 293T, doxycycline-induced
T4 sequence (Q9GV45 other isoform, or with tags, fused parts or gaps with the stated changes): as above
Procedure: (§1) Cells were seeded in 24-well plates ±doxycycline (20 ng/mL for HEK293T, 40 ng/mL for HT29) and incubated overnight (16–24 h) prior to degrader treatments, as stated in the Fig. legends. All timepoint experiments were performed as reverse timepoints in order to harvest all cells at the same time. At the indicated time points cells were lysed in NuPAGE LDS lysis buffer (Invitrogen) diluted to 1× in DISC lysis buffer (20 mM Tris-HCl pH7.5, 150 mM NaCl, 2 mM EDTA pH 8.0, 1% Triton X-100, 10% glycerol, H20)) supplemented with β-Mercaptoethanol (2%), protease and phosphatase inhibitors. Lysates were run through polypropylene columns (Pierce) to shred DNA. […] Membranes were blocked in 5% skim milk (Devondale) in TBS-T (TBS, 0.1% Tween-20) for 1 h prior to immunoblotting with primary antibodies overnight at 4 °C. Unless stated otherwise, all primary antibodies were diluted in TBS-T (TBS, 0.1% Tween-20) containing 5% BSA (Sigma A8022) and 0.04% sodium azide: HaloTag (1:1000, Promega; G9211), NanoLuc (1:500, Promega; N7000), β-actin (1:20,000, Sigma; A-1798), MLKL (1:1000, produced in-house; 3H1 clone)[39], FKBP (1:1000, R&D systems; 422513), caspase-8 (1:1000, Proteintech; 13423-1-AP), Histone H3 (1:1000, Abcam; ab10799), Cadherin (1:1000, Cell Signalling Technologies; 4068 T). […]
(§2) NC4. […] Cell death was assessed by flow cytometric analysis of PI exclusion. […]

[8] = molecular target: T5, MLKL-NanoLuc (Oplophorus gracilirostris, UniProt Q9GV45, A31E/A60N/A81I/F95D/I117V/K70R/L54V/L99Q/M102K/N193R/P142E/Q151K/Q38R/Q45L/V71I/Y165I); test: Western blot of MLKL^−/− HT29 cells expressing MLKL-NanoLuc; assay type: cell-based, human; details: 62.5-500 nM, 5 h
T5 construct: expressed in transfected cells; host or cells: MLKL-/- HT29 (A12); MLKL-/-CASP8-/- HT29 (A24); doxycycline-inducible
T5 sequence (Q9GV45 other isoform, or with tags, fused parts or gaps with the stated changes): as above
Procedure: as §1, §2

Structure (SMILES)	concentration sustaining cell survival over 24 h ([1]; 5 h pre-treatment, then TSZ 24 h) [nM]	TNF+911+zVAD (PI exclusion) ([1]; degrader 3.9nM)	TNF+911+zVAD (PI exclusion) ([1]; degrader 7.8nM)	TNF+911+zVAD (PI exclusion) ([1]; degrader 31.25nM)	TNF+911+zVAD (PI exclusion) ([1]; degrader 62.5nM)	TNF+911+zVAD (PI exclusion) ([1]; degrader 250nM)	TNF+911+zVAD (PI exclusion) ([1]; degrader 500nM)	TNF+911+zVAD (PI exclusion) ([1]; degrader 1000nM)	degradation of murine MLKL-FKBP^F36V [2]	depletion of caspase-8-FKBP^F36V [3]	reduced inhibition of NanoLuc enzymatic activity compared to the parent inhibitor (NanoLuc inhibitor 2) [4]	degradation of the H-E-N-F substrate protein by Western blot, comparison of NanoTACs ([5]; 125-500 nM)	low concentration triggering degradation of the fusion protein ([5]; Western blot)	Dmax at 0.5 µM [6] [%]	NanoLuc-SLC38A2 level by Western blot [7]	degradation of MLKL-NanoLuc, comparison of NanoTACs [8]
CC[C@H](C(=O)N1CCCC[C@H]1C(=O)O[C@H](CCc1ccc(OC)c(OC)c1)c1ccccc1OCC(=O)NCCCCCCC(=O)N[C@H](C(=O)N1C[C@H](O)C[C@H]1C(=O)N[C@@H](C)c1ccc(-c2scnc2C)cc1)C(C)(C)C)c1cc(OC)c(OC)c(OC)c1 [FV1]	3.9	77.6 and 82.1 and 75.3	84.5 and 86.7 and 79.8	80.9 and 86.7 and 82.1	79.4 and 87 and 83.1	80.6 and 84.5 and 80.8	69.7 and 81.6 and 78.5	63.8 and 77.3 and 74.7	comparable degradation	could be depleted						
CCc1cccc(N(CC)C(=O)Cn2c(C(=O)NC3CCC(C(=O)NCCCCCCCC(=O)NCCCCNc4cccc5c4C(=O)N(C4CCC(=O)NC4=O)C5=O)CC3)cc3ccccc32)c1 (stereo not shown) [NC4]											~ 30 fold	consistently outperforming the first analogue NC1	~ 30 nM	~52.9	reduction in Nanoluc-SLC38A2	most effective degradation profile

Reference: paper PMC9019100, “Development of NanoLuc-targeting protein degraders and a universal reporter system to benchmark tag-targeted degradation platforms” (Nature Communications, 2022)
